This is an account of results in patent US20250154144A1 (CHILDREN'S HOSPITAL MEDICAL CENTER, priority 2021, published 2025).

The term Kd denotes a measure of binding affinity in units of concentration. Low values mean tighter binding, high ones weaker binding. A word on the IC50: it is the concentration needed to halve the response being measured. Lower therefore signals inhibition by little substance.

One experiment concerns the target T1, FLT3 K663Q (Homo sapiens, UniProt P36888, K663Q).
T1 construct: purchased DiscoverX (KINOMEscan)
T1 sequence (P36888 27-993 K663Q): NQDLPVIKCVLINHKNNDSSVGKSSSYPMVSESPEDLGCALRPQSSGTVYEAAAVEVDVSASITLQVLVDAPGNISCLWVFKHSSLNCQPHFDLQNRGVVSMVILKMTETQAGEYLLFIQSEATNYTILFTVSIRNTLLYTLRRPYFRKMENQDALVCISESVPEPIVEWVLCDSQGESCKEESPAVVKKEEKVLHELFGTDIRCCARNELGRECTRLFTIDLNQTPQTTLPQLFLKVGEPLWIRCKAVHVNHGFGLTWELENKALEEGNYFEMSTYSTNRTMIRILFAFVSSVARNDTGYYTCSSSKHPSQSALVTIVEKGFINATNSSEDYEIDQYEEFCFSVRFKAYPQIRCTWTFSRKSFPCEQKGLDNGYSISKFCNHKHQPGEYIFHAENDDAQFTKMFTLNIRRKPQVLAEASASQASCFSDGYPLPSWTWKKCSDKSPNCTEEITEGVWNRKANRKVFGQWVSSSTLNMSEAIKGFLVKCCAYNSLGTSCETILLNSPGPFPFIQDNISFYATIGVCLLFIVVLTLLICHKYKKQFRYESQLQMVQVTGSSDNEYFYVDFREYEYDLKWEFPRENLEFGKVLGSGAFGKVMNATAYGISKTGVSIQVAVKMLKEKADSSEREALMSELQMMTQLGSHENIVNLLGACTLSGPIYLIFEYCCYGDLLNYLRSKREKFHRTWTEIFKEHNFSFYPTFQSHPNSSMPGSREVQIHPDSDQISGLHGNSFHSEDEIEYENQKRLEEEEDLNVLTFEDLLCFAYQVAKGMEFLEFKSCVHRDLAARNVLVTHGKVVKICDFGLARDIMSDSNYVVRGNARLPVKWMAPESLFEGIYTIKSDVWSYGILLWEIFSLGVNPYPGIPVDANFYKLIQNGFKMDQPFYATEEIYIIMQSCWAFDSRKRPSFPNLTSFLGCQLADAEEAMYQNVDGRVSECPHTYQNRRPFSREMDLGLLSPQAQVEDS
Briefly: DiscoverX KINOMEscan competition binding, FLT3 K663Q.

A further experiment deals with T2, IRAK4 (Homo sapiens, UniProt Q9NWZ3).
T2 sequence (Q9NWZ3 1-460): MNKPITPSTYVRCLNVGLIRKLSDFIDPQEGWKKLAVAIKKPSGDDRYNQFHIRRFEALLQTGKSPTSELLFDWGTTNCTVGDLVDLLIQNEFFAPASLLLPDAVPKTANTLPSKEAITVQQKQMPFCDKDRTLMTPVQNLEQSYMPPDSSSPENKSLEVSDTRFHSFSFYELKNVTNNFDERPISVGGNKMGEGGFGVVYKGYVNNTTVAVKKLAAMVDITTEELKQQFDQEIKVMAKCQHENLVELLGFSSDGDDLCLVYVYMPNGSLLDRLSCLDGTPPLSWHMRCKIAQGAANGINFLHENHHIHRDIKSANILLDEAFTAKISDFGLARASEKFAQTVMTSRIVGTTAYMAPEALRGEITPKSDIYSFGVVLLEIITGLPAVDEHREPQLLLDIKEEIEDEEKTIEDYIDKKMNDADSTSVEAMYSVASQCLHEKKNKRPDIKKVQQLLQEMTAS
Nature of the experiment: Reaction Biology NanoBRET target engagement assay in HEK-293 cells, IRAK4. Conditions: NanoBRET IRAK4 IC50, HEK-293 cells. A general note: Bioluminescence resonance energy transfer reports proximity on the nanometre scale.

Another experiment has as its target T3, FLT3 Autoinh. (Homo sapiens, UniProt P36888).
T3 construct: purchased DiscoverX (KINOMEscan)
T3 sequence (P36888 564-993 limits assumed): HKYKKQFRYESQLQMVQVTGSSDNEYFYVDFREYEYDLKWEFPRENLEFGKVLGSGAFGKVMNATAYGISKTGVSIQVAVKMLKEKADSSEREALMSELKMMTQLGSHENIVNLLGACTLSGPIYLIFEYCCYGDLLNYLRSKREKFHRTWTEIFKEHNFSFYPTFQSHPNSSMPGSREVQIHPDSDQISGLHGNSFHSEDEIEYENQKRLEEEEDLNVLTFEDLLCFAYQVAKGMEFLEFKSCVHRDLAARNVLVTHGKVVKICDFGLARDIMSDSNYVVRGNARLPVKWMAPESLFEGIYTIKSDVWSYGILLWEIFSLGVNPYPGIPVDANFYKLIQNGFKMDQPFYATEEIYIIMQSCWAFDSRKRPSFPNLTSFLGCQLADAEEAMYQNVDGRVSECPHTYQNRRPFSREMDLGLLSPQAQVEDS
Nature of the experiment: DiscoverX KINOMEscan competition binding, FLT3 Autoinh.

Another experiment deals with T4, FLT3 D835H (Homo sapiens, UniProt P36888, D835H).
T4 construct: purchased DiscoverX (KINOMEscan)
T4 sequence (P36888 27-993 D835H): T1 sequence (P36888 27-993 K663Q) with Q637K, D809H
Nature of the experiment: DiscoverX KINOMEscan competition binding, FLT3 D835H.

The structures appear in SMILES notation. Where a chain is given by its changes, count along the chain named.

Take `CC(O)(c1cn2c(-c3ccnc(N[C@H]4CNCC[C@@H]4F)n3)cnc2cn1)C(F)(F)F` (single isomer, unassigned) [Compound 72]: the figures for the Kd on FLT3 K663Q, on FLT3 Autoinh. and at FLT3 D835H were 21 nM, 25 nM and 1.1 nM, respectively. Moreover, the IC50 against IRAK4 is less than 0.5 nM.

Take `F[C@H]1CCNC[C@@H]1Nc1cncc(-c2cnc3cc(OC4CC4)ccn23)n1` [Compound 12, 6-(7-cyclopropoxyimidazo[1,2-a]pyridin-3-yl)-N-((3S,4S)-4-fluoropiperidin-3-yl)pyrazin-2-amine]: the Kd came out at 13 nM at FLT3 K663Q and 1.1 nM on FLT3 D835H. Moreover, 1 nM corresponded to half-maximal inhibition on IRAK4 (IC50).

Turning to `COc1cc2ncc(-c3cncc(N[C@H]4CNC[C@@H]4F)n3)n2nc1C1CC1` [Compound 22, 6-(6-cyclopropyl-7-methoxyimidazo[1,2-b]pyridazin-3-yl)-N-((3S,4S)-4-fluoropyrrolidin-3-yl)pyrazin-2-amine], the Kd is 18 nM on FLT3 K663Q, 33 nM on FLT3 Autoinh. and 0.87 nM at FLT3 D835H. At IRAK4, this molecule came in with an IC50 of 9 nM.

For the molecule `COc1cc2ncc(-c3cncc(N[C@H]4CNCC[C@@H]4F)n3)n2nc1C1CC1` [Compound 24, 6-(6-cyclopropyl-7-methoxyimidazo[1,2-b]pyridazin-3-yl)-N-((3S,4S)-4-fluoropiperidin-3-yl)pyrazin-2-amine], the Kd at FLT3 K663Q was determined as 3.8 nM; at FLT3 Autoinh., 25 nM; on FLT3 D835H, 0.33 nM. For the same molecule, on IRAK4, the IC50 amounted to 1 nM.

As to `COc1cc2ncc(-c3ccnc(N[C@@H]4CCCNC4)n3)n2cc1C(C)(C)O` [Compound 44, (R)-2-(7-methoxy-3-(2-(piperidin-3-ylamino)pyrimidin-4-yl)imidazo[1,2-a]pyridin-6-yl)propan-2-ol], the results for the Kd at FLT3 K663Q, at FLT3 Autoinh. and at FLT3 D835H were 2.9 nM, 2.3 nM and 0.28 nM, respectively. Also, the IC50 at IRAK4 is less than 0.5 nM.

`COc1cc2ncc(-c3ccnc(N[C@H]4CNC[C@@H]4F)n3)n2nc1C1CC1` [Compound 49, 4-(6-cyclopropyl-7-methoxyimidazo[1,2-b]pyridazin-3-yl)-N-((3S,4S)-4-fluoropyrrolidin-3-yl)pyrimidin-2-amine]: the Kd at FLT3 K663Q was found to be 2.2 nM; at FLT3 Autoinh. it was 16 nM; on FLT3 D835H, 0.46 nM.

Turning to `COc1cc2ncc(-c3ccnc(N[C@H]4CNCC[C@@H]4F)n3)n2nc1C1CC1` [Compound 51, 4-(6-cyclopropyl-7-methoxyimidazo[1,2-b]pyridazin-3-yl)-N-((3S,4S)-4-fluoropiperidin-3-yl)pyrimidin-2-amine], the Kd is 0.82 nM at FLT3 K663Q, 40 nM on FLT3 Autoinh. and 0.47 nM on FLT3 D835H. The same molecule displayed an IC50 against IRAK4 of 1 nM.
